Measured values: ChEMBL document CHEMBL3232741, “Isoxazoline containing natural products as anticancer agents: a review” (Eur J Med Chem, 2014)
Converted amounts (≈) assume the structure as drawn. Each block holds one compound with its values, some of them ahead of it.

Assays:
U-937 [1] = test: Induction of apoptosis in human U937 cells after 24 to 48 hrs by annexin V/propidium iodide staining based flow cytometry; assay type: functional
Jurkat = test: Antiproliferative activity against human Jurkat cells by MTT assay; assay type: functional, cell-based
U-937 [2] = test: Antiproliferative activity against human U937 cells by MTT assay; assay type: functional, cell-based
KB = test: Cytotoxicity against human KB cells; assay type: functional, cell-based
L1210 = test: Cytotoxicity against mouse L1210 cells; assay type: functional, cell-based
P388 = test: Cytotoxicity against mouse P388 cells; assay type: functional, cell-based
HeLa = test: Cytotoxicity against human HeLa cells; assay type: functional, cell-based
[3] = target: T1, Adenosine receptor A1 (Homo sapiens) (UniProt P30542); test: Displacement of [3H]DPCPX from adenosine A1 receptor in human HeLa cells at 100 uM by whole cell binding assay; assay type: cell-based
T1 sequence (whole entry): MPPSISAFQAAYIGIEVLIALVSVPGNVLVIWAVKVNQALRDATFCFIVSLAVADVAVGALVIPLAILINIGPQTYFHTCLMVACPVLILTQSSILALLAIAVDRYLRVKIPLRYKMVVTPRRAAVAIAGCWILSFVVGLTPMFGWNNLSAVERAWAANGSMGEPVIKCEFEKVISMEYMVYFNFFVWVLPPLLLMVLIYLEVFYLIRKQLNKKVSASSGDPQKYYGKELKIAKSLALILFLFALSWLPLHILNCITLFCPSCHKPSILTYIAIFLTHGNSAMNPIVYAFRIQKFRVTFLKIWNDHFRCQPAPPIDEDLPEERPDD

- IC50 (Jurkat): 8.1 µM
- IC50 (U-937 [2]): 8.1 µM
Compound: COC1=C(Br)[C@H](O)[C@@]2(C=C1Br)CC(C(=O)NCCCOc1c(Br)cc(C(O)CNC(=O)C3=NO[C@]4(C=C(Br)C(OC)=C(Br)[C@@H]4O)C3)cc1Br)=NO2 (stereo not given in full)
- Activity (U-937 [1]): 35%

Compound: COC1=C(Br)[C@H](O)[C@@]2(C=C1Br)CC(C(=O)NCCCOc1c(Br)cc(CCN(C)C)cc1Br)=NO2
- IC50 (KB): 7.6 µg/mL (≈ 10.2 µM)
- IC50 (L1210): 2.8 µg/mL (≈ 3.76 µM)

- IC50 (Jurkat): 7.39 µM
- IC50 (U-937 [2]): 7.39 µM
Compound: COC1=C(Br)[C@H](O)[C@@]2(C=C1Br)CC(C(=O)NCC(O)COc1c(Br)cc(C(O)CNC(=O)C3=NO[C@]4(C=C(Br)C(OC)=C(Br)[C@@H]4O)C3)cc1Br)=NO2 (stereo not given in full)
- Activity (U-937 [1]): 35%

Compound: COC1=C(Br)C[C@]2(OC=C1Br)ON=C(C(=O)NCCCOc1c(Br)cc(CCNC=C3C(=O)C=CC3=O)cc1Br)[C@@H]2O (relative stereo)
- IC50 (P388): 2.1 µg/mL (≈ 2.5 µM)

Compound: COC1=C(Br)[C@H](O)[C@@]2(C=C1Br)CC(C(=O)NCCc1c(Br)cc(OCCCN(C)C)cc1Br)=NO2 [PUREALIDIN Q]
- IC50 (KB): 1.2 µg/mL (≈ 1.61 µM)
- IC50 (L1210): 0.95 µg/mL (≈ 1.27 µM)

Compound: COC1=C(Br)[C@H](O)[C@@]2(C=C1Br)CC(C(=O)NCCCOc1c(Br)cc(CCNC(=O)C3=NO[C@]4(C=C(Br)C(OC)=C(Br)[C@@H]4O)C3)cc1Br)=NO2
- EC50 (HeLa): 2.6 µM

- inhibition [3]: 61%
Compound: COC1=C(Br)[C@H](O)[C@@]2(C=C1Br)CC(C(=O)NCCCOc1c(Br)cc(CCNS(=O)(=O)O)cc1Br)=NO2
- EC50 (HeLa): 60 µM

Compound: COC1=C(Br)[C@H](O)[C@@]2(C=C1Br)CC(C(=O)NCCCCNC(=O)C1=NO[C@]3(C=C(Br)C(OC)=C(Br)[C@@H]3O)C1)=NO2 [AEROTHIONIN]
- EC50 (HeLa): 42 µM
